Experimental data as given in the NIST ThermoML archive (doi:10.1016/j.jct.2013.04.010).
Values joined by “and” are separate entries in the source; they are usually repeats but may differ in a detail not shown here. Equal values may be shown once.

Settings: Liquid, Other PVT measurement

CCCCC(CC)COC(=O)c1ccccc1C(=O)OCC(CC)CCCC (stereo not given) [bis(2-ethylhexyl) 1,2-benzenedicarboxylate]
Settings	mass density
373.29 K, 3800 kPa	921 kg/m3
373.29 K, 7600 kPa	924 kg/m3
373.29 K, 12200 kPa	928 kg/m3
373.29 K, 15900 kPa	931 kg/m3
373.29 K, 18100 kPa	933 kg/m3
373.29 K, 22300 kPa	936 kg/m3
373.29 K, 28300 kPa	940 kg/m3
373.29 K, 34800 kPa	945 kg/m3
373.29 K, 42200 kPa	950 kg/m3
373.29 K, 48900 kPa	954 kg/m3
373.29 K, 56100 kPa	959 kg/m3
373.29 K, 69500 kPa	967 kg/m3
373.29 K, 83700 kPa	974 kg/m3
373.29 K, 104200 kPa	984 kg/m3
373.29 K, 125400 kPa	994 kg/m3
373.29 K, 138900 kPa	1001 kg/m3
373.29 K, 152900 kPa	1007 kg/m3
373.29 K, 174400 kPa	1015 kg/m3
373.29 K, 208300 kPa	1029 kg/m3
373.29 K, 240000 kPa	1041 kg/m3
373.29 K, 262100 kPa	1046 kg/m3
423.53 K, 4200 kPa	878 kg/m3
423.53 K, 7900 kPa	885 kg/m3
423.53 K, 11100 kPa	890 kg/m3
423.53 K, 14500 kPa	895 kg/m3
423.53 K, 18000 kPa	898 kg/m3
423.53 K, 21200 kPa	901 kg/m3
423.53 K, 27800 kPa	908 kg/m3
423.53 K, 35200 kPa	914 kg/m3
423.53 K, 42100 kPa	918 kg/m3
423.53 K, 49200 kPa	924 kg/m3
423.53 K, 55700 kPa	930 kg/m3
423.53 K, 70700 kPa	939 kg/m3
423.53 K, 83700 kPa	948 kg/m3
423.53 K, 104200 kPa	960 kg/m3
423.53 K, 125400 kPa	970 kg/m3
423.53 K, 139900 kPa	977 kg/m3
423.53 K, 153700 kPa	983 kg/m3
423.53 K, 173400 kPa	992 kg/m3
423.53 K, 207100 kPa	1006 kg/m3
423.53 K, 239400 kPa	1018 kg/m3
423.53 K, 263800 kPa	1028 kg/m3
476.2 K, 5500 kPa	847 kg/m3
476.2 K, 9400 kPa	853 kg/m3
476.2 K, 9500 kPa	853 kg/m3
476.2 K, 15200 kPa	861 kg/m3
476.2 K, 15700 kPa	861 kg/m3
476.2 K, 26800 kPa	874 kg/m3
476.2 K, 27300 kPa	874 kg/m3
476.2 K, 27500 kPa	874 kg/m3
476.2 K, 46700 kPa	894 kg/m3
476.2 K, 46900 kPa	894 kg/m3
476.2 K, 59800 kPa	905 kg/m3
476.2 K, 70700 kPa	914 kg/m3
476.2 K, 71500 kPa	913 kg/m3
476.2 K, 95700 kPa	931 kg/m3
476.2 K, 96400 kPa	931 kg/m3
476.2 K, 114200 kPa	942 kg/m3
476.2 K, 114800 kPa	942 kg/m3
476.2 K, 139800 kPa	959 kg/m3
476.2 K, 140400 kPa	958 kg/m3
476.2 K, 176200 kPa	975 kg/m3
476.2 K, 206900 kPa	990 kg/m3
476.2 K, 240200 kPa	1002 kg/m3
476.2 K, 269000 kPa	1013 kg/m3
491.86 K, 3900 kPa	830 kg/m3 and 831 kg/m3
491.86 K, 4100 kPa	830 kg/m3
491.86 K, 9900 kPa	840 kg/m3
491.86 K, 10500 kPa	839 kg/m3
491.86 K, 22800 kPa	856 kg/m3
491.86 K, 23300 kPa	856 kg/m3
491.86 K, 37200 kPa	870 kg/m3
491.86 K, 37500 kPa	870 kg/m3
491.86 K, 50700 kPa	886 kg/m3
491.86 K, 51100 kPa	885 kg/m3
491.86 K, 71500 kPa	902 kg/m3
491.86 K, 71900 kPa	902 kg/m3
491.86 K, 94800 kPa	918 kg/m3
491.86 K, 95000 kPa	918 kg/m3
491.86 K, 121700 kPa	934 kg/m3
491.86 K, 121800 kPa	934 kg/m3
491.86 K, 145400 kPa	948 kg/m3
491.86 K, 145600 kPa	948 kg/m3
491.86 K, 177200 kPa	964 kg/m3
491.86 K, 177400 kPa	964 kg/m3
491.86 K, 204300 kPa	977 kg/m3
491.86 K, 206000 kPa	978 kg/m3
491.86 K, 229400 kPa	989 kg/m3
491.86 K, 230800 kPa	988 kg/m3
491.86 K, 253700 kPa	998 kg/m3
491.86 K, 258100 kPa	1000 kg/m3
523.6 K, 5700 kPa	811 kg/m3
523.6 K, 9200 kPa	817 kg/m3
523.6 K, 16100 kPa	827 kg/m3
523.6 K, 21600 kPa	835 kg/m3
523.6 K, 27300 kPa	842 kg/m3
523.6 K, 27500 kPa	842 kg/m3
523.6 K, 35500 kPa	851 kg/m3
523.6 K, 35700 kPa	851 kg/m3
523.6 K, 44200 kPa	860 kg/m3
523.6 K, 44300 kPa	860 kg/m3
523.6 K, 44400 kPa	860 kg/m3
523.6 K, 44600 kPa	860 kg/m3
523.6 K, 55800 kPa	871 kg/m3
523.6 K, 56300 kPa	871 kg/m3
523.6 K, 68500 kPa	882 kg/m3
523.6 K, 68900 kPa	882 kg/m3
523.6 K, 82200 kPa	893 kg/m3
523.6 K, 82500 kPa	892 kg/m3
523.6 K, 97000 kPa	903 kg/m3
523.6 K, 97300 kPa	903 kg/m3
523.6 K, 117000 kPa	916 kg/m3
523.6 K, 117400 kPa	916 kg/m3
523.6 K, 117700 kPa	916 kg/m3
523.6 K, 155700 kPa	939 kg/m3
523.6 K, 156100 kPa	939 kg/m3
523.6 K, 181200 kPa	952 kg/m3
523.6 K, 181500 kPa	952 kg/m3
523.6 K, 209500 kPa	964 kg/m3
523.6 K, 209900 kPa	964 kg/m3
523.6 K, 233900 kPa	974 kg/m3
523.6 K, 234000 kPa	974 kg/m3
523.6 K, 253400 kPa	983 kg/m3
523.6 K, 253600 kPa	983 kg/m3
523.6 K, 263500 kPa	987 kg/m3
